One experiment deals with T1, CDK2 (Homo sapiens, UniProt P24941).
T1 construct: purchased Carna Company
Briefly: CDK enzymology experiment in vitro, capillary mobility shift assay (MSA). The note with it: read-out: CDK2 (nM) inhibitory IC50. In kind it is biochemical. The method, then:
(§1) CDK1/CDK2/CDK4/CDK6/CDK7/CDK9 were purchased from Carna Company; Carliper substrate CTD3/substrate 18/substrate 8 were purchased from Gil Biochemical Company; Dinaciclib/Palbociclib were purchased from Selleckchem Company; DMSO was purchased from Sigma Company; 384-well plates were purchased from Corning Company.
(§2) • (1) Preparation of 1×Kinase buffer. • (2) Preparation of compound concentration gradient: Test concentration of the test compound was started at 1 μM, 10 μM or 30 μM, 3-fold dilution, 10 concentrations, detected in duplicate. The test compound was diluted to a 100-fold final concentration with 100% DMSO solution in a 384 source plate. Liquid handler Echo 550 was used to transfer 250 nL of 100-fold final concentration of the compound to the target plate 384-well plate. […] The 384-well plate was centrifuged at 1000 rpm for 30 seconds, and shaken to mix uniformly. • (10) The conversion rate was read with Caliper EZ Reader.
(§3) Where, conversion %_sample is the readings of conversion rate of the sample; conversion %_min: the average value of negative control wells, representing the readings of conversion rate of wells without enzyme activity; conversion %_max: the average value of positive control wells, representing the readings of conversion rate of wells without compound inhibition.
(§4) Taking the log value of the concentration as the X-axis, and the percentage inhibition rate as the Y-axis, the dose-effect curve was fitted using the log(inhibitor) vs. response—Variable slope of the analysis software GraphPad Prism 5 so as to obtain the IC50 value of each compound on the enzyme activity.
(§5) Y=Bottom+(Top−Bottom)/(1+10^((Log IC50−X)*HillSlope)). Calculation formula: […]

In another experiment the target is T2, CDK4 (Homo sapiens, UniProt P11802).
T2 construct: purchased Carna Company
T2 sequence (P11802 whole entry): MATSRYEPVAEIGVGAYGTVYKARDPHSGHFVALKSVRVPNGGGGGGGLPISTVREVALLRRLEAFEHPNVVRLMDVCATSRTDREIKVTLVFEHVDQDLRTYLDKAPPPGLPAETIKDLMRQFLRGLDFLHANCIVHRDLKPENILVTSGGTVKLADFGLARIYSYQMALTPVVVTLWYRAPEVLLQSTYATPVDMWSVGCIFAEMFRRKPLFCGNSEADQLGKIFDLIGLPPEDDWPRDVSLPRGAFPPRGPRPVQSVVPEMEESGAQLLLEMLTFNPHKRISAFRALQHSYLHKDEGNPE
T2 sequence (P30281 whole entry partner): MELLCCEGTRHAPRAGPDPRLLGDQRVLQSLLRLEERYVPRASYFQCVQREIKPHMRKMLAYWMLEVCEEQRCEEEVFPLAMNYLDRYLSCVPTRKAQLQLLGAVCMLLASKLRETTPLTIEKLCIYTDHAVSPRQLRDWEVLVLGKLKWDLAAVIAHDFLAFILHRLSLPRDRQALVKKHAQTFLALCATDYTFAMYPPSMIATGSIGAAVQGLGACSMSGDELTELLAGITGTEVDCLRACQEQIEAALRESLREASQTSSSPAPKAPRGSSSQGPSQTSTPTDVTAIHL
Described as above. It is filed as biochemical. The note with it: read-out: CDK4 (nM) inhibitory IC50. The method, then: as §1, §2, §3, §4, §5

For `Cn1cc(S(=O)(=O)N2CCC(Nc3ncc(C#N)c(NC4CCC4)n3)CC2)cn1` [Compound 76], the half-maximal inhibitory concentration (IC50) (usually the concentration at which inhibition is half-maximal) at CDK2 fell in the range of 2.5 to 10 nM; at CDK4 it was 10 to 50 nM.

Consider `Cn1cc(-c2ccc(S(=O)(=O)N3CCC(Nc4cc(N[C@H]5CCOC5)c(C#N)cn4)CC3)cc2)cn1` [Compound 166], for which the IC50 lay within 0.5 to 2.5 nM on CDK2 and 2.5 to 10 nM at CDK4.

With `CN1CCN(Cc2ccc(S(=O)(=O)N3CCC(Nc4ncc(C#N)c(NC5CCCC5)n4)CC3)cc2)CC1` [Example 22, 4-(Cyclopentylamino)-2-((1-((4-((4-methylpiperazin-1-yl)methyl)phenyl)sulfonyl)piperidin-4-yl)amino)pyrimidine-5-carbonitrile], the IC50 at CDK2 lay in the range of 2.5 to 10 nM; at CDK4, 10 to 50 nM.

`Cn1cc(S(=O)(=O)N2CC[C@@H](Nc3ncc(C(F)(F)F)c(O[C@H]4CCOC4)n3)[C@@H](F)C2)cn1` [Compound 128]: the IC50 at CDK2 fell in the range of 10 to 50 nM; at CDK4, 100 to 1000 nM.

`O=S(=O)(c1cnn(C2CCOCC2)c1)N1CCC(Nc2ncc(C(F)(F)F)c(O[C@H]3CCOC3)n2)CC1` [Compound 108]: the IC50 lay in the range of 0.5 to 2.5 nM on CDK2 and 2.5 to 10 nM on CDK4.

In the case of `Cn1cc(S(=O)(=O)N2CCC(Nc3ncc(C(F)(F)F)c(OC4CCCC4)n3)CC2)cn1` [Compound 40], the results for the IC50 at CDK2 and at CDK4 were 0.5 to 2.5 nM and 2.5 to 10 nM, respectively.

Take `N#Cc1cnc(NC2CCN(S(=O)(=O)c3ccc(-c4cn[nH]c4)cc3)CC2)nc1N[C@H]1CCOC1` [Compound 105]: the IC50 was 0.5 to 2.5 nM on CDK2 and 10 to 50 nM on CDK4.

As for `C[C@@H]1COCCN1c1nc(NC2CCN(S(=O)(=O)c3cnn(C)c3)CC2)ncc1C#N` [Compound 38], the IC50 was in the range of 10 to 50 nM on CDK2 and 50 to 100 nM at CDK4.

In the case of `Cn1ccc(S(=O)(=O)N2CCC(Nc3ncc(C#N)c(NC4CCCC4)n3)CC2)n1` [Compound 33], the IC50 on CDK2 fell in the range of 2.5 to 10 nM; on CDK4, 10 to 50 nM.

In the case of `Cn1cc(S(=O)(=O)N2CCC(Nc3ncc(C#N)c(NC4CCCCC4)n3)CC2)cn1` [Compound 79], the IC50 on CDK2 was 2.5 to 10 nM; on CDK4, 10 to 50 nM.

For the molecule `Cn1cc(S(=O)(=O)N2CCC(Nc3ncc(C#N)c(N[C@H]4CCC[C@]4(C)O)n3)CC2)cn1` (single isomer, unassigned) [Example 21], the IC50 at CDK2 is 2.5 to 10 nM; on CDK4, 10 to 50 nM.

As for `Cn1cc(S(=O)(=O)N2CCC(Nc3ncc(C#N)c(N[C@H]4CCC[C@@H]4O)n3)CC2)cn1` [Compound 46], the figures for the IC50 on CDK2 and on CDK4 were 10 to 50 nM and 100 to 1000 nM, respectively.

In the case of `Cn1cc(S(=O)(=O)N2CCC(Nc3ncc(C#N)c(O[C@H]4CC[C@@H](O)C4)n3)CC2)cn1` (relative stereo) [Compound 58], the IC50 at CDK2 fell in the range of 0.5 to 2.5 nM; at CDK4, 10 to 50 nM.

Consider `Cn1cc(-c2ccc(S(=O)(=O)N3CCC(Nc4ncc(C#N)c(N[C@@H]5CCC[C@H]5O)n4)CC3)cc2)cn1` [Compound 60], for which the IC50 at CDK2 lay within 0.5 to 2.5 nM.

Regarding `Cn1cc(S(=O)(=O)N2CCC(Nc3cc(N[C@H]4CCOC4)c(C#N)cn3)CC2)cn1` [Compound 164], the IC50 at CDK2 is 10 to 50 nM; at CDK4, 50 to 100 nM.

On to `C[C@@H](CO)Nc1nc(NC2CCN(S(=O)(=O)c3cnn(C)c3)CC2)ncc1C#N` [Compound 69], for which the IC50 on CDK2 fell in the range of 10 to 50 nM; on CDK4 it was 100 to 1000 nM.

On to `Cn1cc(S(=O)(=O)N2CCC(Nc3ncc(C(F)(F)F)c(O[C@H]4CCOC4)n3)[C@@H](F)C2)cn1` (stereo partly drawn) [Compound 120], for which the IC50 at CDK2 is 2.5 to 10 nM; at CDK4 it was 10 to 50 nM.

Regarding `CC(C)(O)Cn1cc(S(=O)(=O)N2CCC(Nc3ncc(C(F)(F)F)c(O[C@H]4CCOC4)n3)CC2)cn1` [Compound 156], the IC50 was 0.5 to 2.5 nM on CDK2 and 2.5 to 10 nM at CDK4.

Turning to `Cn1cc(S(=O)(=O)N2CCC(Nc3ncc(C#N)c(N[C@@H]4CCC[C@@]4(C)O)n3)CC2)cn1` (racemic) [Example 19], the IC50 at CDK2 fell in the range of 2.5 to 10 nM; on CDK4, 10 to 50 nM.

With `Cn1cc(S(=O)(=O)N2CCC(Nc3ncc(C#N)c(N[C@H]4CCC[C@H]4O)n3)CC2)cn1` [Compound 48], the results for the IC50 on CDK2 and at CDK4 were 2.5 to 10 nM and 10 to 50 nM, respectively.

As for `Cn1cc(S(=O)(=O)N2CC[C@@H](Nc3ncc(C(F)(F)F)c(O[C@H]4CCOC4)n3)[C@H](F)C2)cn1` [Compound 125], the IC50 was in the range of 0.5 to 2.5 nM on CDK2 and 10 to 50 nM at CDK4.

Take `Cn1cc(S(=O)(=O)N2CCC(Nc3ncc(C(F)(F)F)c(N[C@@H]4CCC[C@H]4O)n3)CC2)cn1` [Compound 54]: the IC50 at CDK2 is 0.5 to 2.5 nM; on CDK4 it was 10 to 50 nM.

With `Cn1cc(S(=O)(=O)N2CCC(Nc3ncc(C#N)c(N[C@H]4C[C@@H](O)C4)n3)CC2)cn1` [Compound 77], the IC50 on CDK2 lay within 2.5 to 10 nM; on CDK4 it was 10 to 50 nM.

For `O=S(=O)(c1ccccn1)N1CCC(Nc2ncc(C(F)(F)F)c(O[C@H]3CCOC3)n2)CC1` [Compound 109], the results for the IC50 on CDK2 and on CDK4 were 0.5 to 2.5 nM and 10 to 50 nM, respectively.

In the case of `Cn1cc(S(=O)(=O)N2CCC(Nc3ncc(C#N)c(O[C@@H]4CC[C@@H](O)C4)n3)CC2)cn1` (single isomer, unassigned) [Compound 57], the IC50 on CDK2 was in the range of 2.5 to 10 nM; on CDK4, 10 to 50 nM.

As to `Cn1cc(S(=O)(=O)N2CCC(Nc3ncc(C#N)c(O[C@@H]4CCC[C@H]4O)n3)CC2)cn1` (single isomer, unassigned) [Compound 67], the IC50 lay within 2.5 to 10 nM on CDK2 and 10 to 50 nM on CDK4.

As for `Cn1cc(S(=O)(=O)N2CCC(Nc3ncc(C#N)c(O[C@H]4CC[C@H](O)C4)n3)CC2)cn1` (relative stereo) [Compound 55], the values for the IC50 at CDK2 and on CDK4 were 2.5 to 10 nM and 10 to 50 nM, respectively.

For `CN1CCC(S(=O)(=O)N2CCC(Nc3ncc(C#N)c(NC4CCCC4)n3)CC2)CC1` [Compound 85], the IC50 at CDK2 was 2.5 to 10 nM; on CDK4, 10 to 50 nM.

Turning to `Cn1cc(S(=O)(=O)N2CCC(Nc3ncc(C#N)c(N[C@H]4CC[C@H](O)C4)n3)CC2)cn1` (single isomer, unassigned) [Compound 52], the values for the IC50 on CDK2 and at CDK4 were 2.5 to 10 nM and 10 to 50 nM, respectively.

Turning to `CN(C)[C@@H]1CCCC1Nc1nc(NC2CCN(S(=O)(=O)c3cnn(C)c3)CC2)ncc1C#N` (stereo partly drawn) [Example 23], the IC50 on CDK2 lay within 2.5 to 10 nM; at CDK4, 50 to 100 nM.

In the case of `Cn1cc(S(=O)(=O)N2CCC(Nc3ncc(C#N)c(O[C@H]4CC[C@H](O)C4)n3)CC2)cn1` (single isomer, unassigned) [Compound 56], the IC50 was 2.5 to 10 nM on CDK2 and 50 to 100 nM at CDK4.

As for `Cn1cc(-c2ccc(S(=O)(=O)N3CCC(Nc4ncc(C#N)c(N[C@H]5CCC[C@@H]5O)n4)CC3)cc2)cn1` [Compound 59], the IC50 at CDK2 and on CDK4 was 2.5 to 10 nM each time.

In the case of `N#Cc1cnc(NC2CCN(S(=O)(=O)c3ccccn3)CC2)nc1NC1CCCC1` [Compound 36], the IC50 at CDK2 and on CDK4 was 2.5 to 10 nM in each case.

`Cn1cc(S(=O)(=O)N2CCC(Nc3ncc(C#N)c(N[C@@H]4CCOC4)n3)CC2)cn1` [Compound 43]: the IC50 was 10 to 50 nM at CDK2 and 100 to 1000 nM on CDK4.

Regarding `Cn1cc(S(=O)(=O)N2CCC(Nc3ncc(C#N)c(O[C@@H]4CCC[C@H]4O)n3)CC2)cn1` (relative stereo) [Compound 68], the IC50 at CDK2 was 2.5 to 10 nM; on CDK4, 10 to 50 nM.

As to `Cn1cc(-c2ccc(S(=O)(=O)N3CCC(Nc4ncc(C#N)c(N[C@@H]5CCC[C@H]5O)n4)CC3)cc2)cn1` [Compound 50], the figures for the IC50 on CDK2 and on CDK4 were 0.5 to 2.5 nM and 10 to 50 nM, respectively.

In the case of `Cn1cc(S(=O)(=O)N2CCC(Nc3ncc(C(F)(F)F)c(O[C@H]4CCOC4)n3)C(F)(F)C2)cn1` (stereo partly drawn) [Compound 129], the IC50 fell in the range of 2.5 to 10 nM on CDK2 and 10 to 50 nM at CDK4.

Turning to `Cn1cc(S(=O)(=O)N2CCC(Nc3ncc(C#N)c(N[C@@H]4CC[C@@H](O)C4)n3)CC2)cn1` (single isomer, unassigned) [Compound 53], the IC50 on CDK2 fell in the range of 2.5 to 10 nM; at CDK4, 10 to 50 nM.

With `Cn1cc(S(=O)(=O)N2CCC(Nc3ncc(C#N)c(S(=O)(=O)C4CCCC4)n3)CC2)cn1` [Compound 97], the IC50 at CDK2 lay within 0.5 to 2.5 nM; at CDK4, 10 to 50 nM.

As to `CN(c1nc(NC2CCN(S(=O)(=O)c3cnn(C)c3)CC2)ncc1C#N)C1CCCC1` [Compound 39], the IC50 on CDK2 is 0.5 to 2.5 nM; on CDK4, 2.5 to 10 nM.

Take `Cn1cc(S(=O)(=O)N2CCC(Nc3ncc(C(F)(F)F)c(O[C@@H]4COC[C@@H]4F)n3)CC2)cn1` [Compound 124]: the IC50 at CDK2 is 2.5 to 10 nM; at CDK4, 100 to 1000 nM.

Take `CN1CC[C@@H](Nc2nc(NC3CCN(S(=O)(=O)c4cnn(C)c4)CC3)ncc2C#N)C1` [Compound 71]: the IC50 on CDK2 lay in the range of 2.5 to 10 nM; on CDK4 it was 10 to 50 nM.

In the case of `CN1CC[C@@H](Oc2nc(NC3CCN(S(=O)(=O)c4cnn(C)c4)CC3)ncc2C#N)C1` [Compound 73], the concentration for half-maximal inhibition (IC50) at CDK2 lay within 50 to 100 nM; on CDK4, 100 to 1000 nM.

With `O=S(=O)(c1cn[nH]c1)N1CCC(Nc2ncc(C(F)(F)F)c(O[C@H]3CCOC3)n2)CC1` [Example 25], the IC50 on CDK2 was less than 0.5 nM; at CDK4, 2.5 to 10 nM.

These data come from US20250009745A1, “CDK INHIBITOR” (SHANGHAI QILU PHARMACEUTICAL RESEARCH AND DEVELOPMENT …, priority 2021, published 2025).
